Test results taken from patent US10065990B2, “Cyclic peptide compound, and preparation method, pharmaceutical composition and use thereof” (HANGZHOU GUANYU BIO-MEDICAL CO., LTD, priority 2013, dated 2018).
Where two headings read alike, the source gives them in different places.

Experiments:
HDAC7 = molecular target: T1, HDAC7 (Homo sapiens, UniProt Q8WUI4); test: HDAC biochemical activity measurement (fluorescent substrate deacetylation);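 note: fluorogenic deacetylation assay using acetyl-lysine substrate at 20 µM, enzyme and compound incubated 30 min at 37 °C, then developer added, fluorescence read at 360/460 nm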; conditions: HDAC7; 37° C. 30 minutes
T1 sequence (Q8WUI4 1-952): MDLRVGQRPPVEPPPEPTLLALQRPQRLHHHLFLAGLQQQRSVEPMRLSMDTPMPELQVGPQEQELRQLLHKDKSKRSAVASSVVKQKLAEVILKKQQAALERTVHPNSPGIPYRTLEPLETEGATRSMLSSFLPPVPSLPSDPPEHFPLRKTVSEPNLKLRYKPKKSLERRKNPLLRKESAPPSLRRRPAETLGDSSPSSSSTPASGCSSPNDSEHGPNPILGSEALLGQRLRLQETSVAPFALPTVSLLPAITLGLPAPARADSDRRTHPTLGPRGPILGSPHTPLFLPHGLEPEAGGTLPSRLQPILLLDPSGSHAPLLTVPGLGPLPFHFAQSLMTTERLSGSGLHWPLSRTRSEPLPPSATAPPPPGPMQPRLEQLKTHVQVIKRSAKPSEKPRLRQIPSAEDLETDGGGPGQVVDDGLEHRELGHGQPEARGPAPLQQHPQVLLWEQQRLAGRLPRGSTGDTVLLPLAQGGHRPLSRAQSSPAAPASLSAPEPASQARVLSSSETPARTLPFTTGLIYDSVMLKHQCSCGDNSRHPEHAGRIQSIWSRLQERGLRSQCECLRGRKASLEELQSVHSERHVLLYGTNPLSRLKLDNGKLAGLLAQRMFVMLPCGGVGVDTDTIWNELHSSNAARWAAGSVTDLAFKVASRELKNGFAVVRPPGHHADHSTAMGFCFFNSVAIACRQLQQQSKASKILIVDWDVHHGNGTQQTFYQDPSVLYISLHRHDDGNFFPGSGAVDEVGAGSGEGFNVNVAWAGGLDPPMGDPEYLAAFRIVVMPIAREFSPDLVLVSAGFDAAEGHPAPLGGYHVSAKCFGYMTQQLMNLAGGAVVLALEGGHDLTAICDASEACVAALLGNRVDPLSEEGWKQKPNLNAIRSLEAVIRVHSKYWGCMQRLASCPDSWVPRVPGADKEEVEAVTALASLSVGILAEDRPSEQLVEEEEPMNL

[1] = tested on: N-87 (human gastric cancer cells); test: MTT cancer cell growth inhibition; format: cell-based; conditions: Homo sapiens, 72 h, MTT, 72 hours incubation, N-87 cells; read-out: GI50 N-87
Excerpt: (§1) MTT assay principle is yellow MTT can penetrate membrane into the cell, succinic dehydrogenase of the mitochondria in living cells can make exogenous MTT reduction of insoluble in water of blue-violet acicular formazan for crystallization and deposition in the cell, crystallization can be dissolved dimethyl sulfoxide (DMSO) solution, detected its absorbance at 490 nm/570 nm wavelength by enzyme-linked immunosorbent assay, which can reflect the number of cells.
(§2) Using DMEM+10% FBS culture medium or using 1640+10% FBS culture, respectively.
(§3) a) Cells were seeded in 96-well plates with the inoculation of 1500/well, 190 μl/hole, 37° C., 5% of CO2 incubator overnight;
(§4) b) The next day each well was added 10 μl of different drugs. The final concentration of drug was 10^−5˜10^−10M, three parallel holes; 37° C., 5% CO2 culture incubator for 72 hours incubation;
(§5) c) Per well was added 20 μl 5 mg/ml of MTT, 37° C., 5% CO2 culture incubator for 4 hours incubation;
(§6) d) The supernatant was discarded. Each well was added 100 μl of DMSO and oscillation;
(§7) e) 570 nm readings. Calculate cell viability. GI50 calculation based on the results.

[2] = tested on: BGC-823 (human gastric cancer cells); test: MTT cancer cell growth inhibition; format: cell-based; conditions: Homo sapiens, BGC-823, 72 h, MTT, 72 hours incubation, read-out: GI50 BG
Excerpt: as §1, §2, §3, §4, §5, §6, §7

[3] = tested on: U937 (human leukemia cells); test: MTT cancer cell growth inhibition; format: cell-based; conditions: Homo sapiens, U-937, 72 h, MTT, 72 hours incubation, read-out: GI50 U93
Excerpt: as §1, §2, §3, §4, §5, §6, §7

[4] = tested on: MCF-7 (human breast cancer cells); test: MTT cancer cell growth inhibition; format: cell-based; conditions: Homo sapiens, MCF7, 72 h, 72 hours incubation, read-out: GI50 MCF
Excerpt: as §1, §2, §3, §4, §5, §6, §7

[5] = tested on: MOLT-4 (human acute lymphoblastic leukemia cells); test: MTT cancer cell growth inhibition; format: cell-based; conditions: Homo sapiens, MOLT-4, 72 h, MTT, 72 hours incubation, read-out: GI50 Mol
Excerpt: as §1, §2, §3, §4, §5, §6, §7

[6] = tested on: MDA-MB-231 (breast cancer cells); test: MTT cancer cell growth inhibition; format: cell-based; conditions: Homo sapiens, MDA-MB-231, 72 h, read-out: GI50 MDA-MB-231, MTT, 72 hours incubation, MDA-MB-231 cells
Excerpt: as §1, §2, §3, §4, §5, §6, §7

[7] = tested on: Huh-7 (human hepatoma cells); test: MTT cancer cell growth inhibition; format: cell-based; conditions: Homo sapiens, Huh-7, 72 h, MTT, 72 hours incubation, Huh-7 cells; read-out: GI50 Huh-7
Excerpt: as §1, §2, §3, §4, §5, §6, §7

[8] = tested on: H1975 (non-small cell lung adenocarcinoma); test: MTT cancer cell growth inhibition; format: cell-based; conditions: Homo sapiens, NCI-H1975, 72 h, MTT, 72 hours incubation, H1975 cells; read-out: GI50 H1975
Excerpt: as §1, §2, §3, §4, §5, §6, §7

[9] = tested on: PANC-1 (Pac-1, human pancreatic cancer cells); test: MTT cancer cell growth inhibition; format: cell-based; conditions: Homo sapiens, PANC-1, 72 h, MTT, 72 hours incubation, read-out: GI50 PAN
Excerpt: as §1, §2, §3, §4, §5, §6, §7

[10] = tested on: DU145 (human prostate cancer cells); test: MTT cancer cell growth inhibition; format: cell-based; conditions: Homo sapiens, DU-145, 72 h, MTT, 72 hours incubation, read-out: GI50 Du1
Excerpt: as §1, §2, §3, §4, §5, §6, §7

[11] = tested on: Hela (human cervical cancer cells); test: MTT cancer cell growth inhibition; format: cell-based; conditions: Homo sapiens, HeLa, 72 h, MTT, 72 hours incubation, read-out: GI50 Hela
Excerpt: as §1, §2, §3, §4, §5, §6, §7

[12] = tested on: Bel-7402 (human hepatoma cells); test: MTT cancer cell growth inhibition; format: cell-based; conditions: Homo sapiens, Bel-7402, 72 h, MTT, 72 hours incubation, Bel-7402 cells; read-out: GI50 Bel-7402
Excerpt: as §1, §2, §3, §4, §5, §6, §7

[13] = tested on: A549 (human lung cancer cells); test: MTT cancer cell growth inhibition; format: cell-based; conditions: Homo sapiens, A549, 72 h, MTT, 72 hours incubation, read-out: GI50 A54
Excerpt: as §1, §2, §3, §4, §5, §6, §7

[14] = tested on: KBM5-T315I (human chronic myelogenous leukemia); test: MTT cancer cell growth inhibition; format: cell-based; conditions: Homo sapiens, 72 h, MTT, 72 hours incubation, KBM5-T315I cells; read-out: GI50 KBM5-T315I
Excerpt: as §1, §2, §3, §4, §5, §6, §7

[15] = tested on: HCC827 (human non-small cell lung cancer cells); test: MTT cancer cell growth inhibition; format: cell-based; conditions: Homo sapiens, HCC827, 72 h, MTT, 72 hours incubation, HCC827 cells; read-out: GI50 HCC827
Excerpt: as §1, §2, §3, §4, §5, §6, §7

[16] = tested on: K562 (human leukemia cells); test: MTT cancer cell growth inhibition; format: cell-based; conditions: Homo sapiens, K562, 72 h, MTT, 72 hours incubation, K562 cells; read-out: GI50 K562
Excerpt: as §1, §2, §3, §4, §5, §6, §7

[17] = tested on: KBM-5 (human chronic myelogenous leukemia); test: MTT cancer cell growth inhibition; format: cell-based; conditions: Homo sapiens, KBM5, 72 h, MTT, 72 hours incubation, KBM-5 cells; read-out: GI50 KBM-5
Excerpt: as §1, §2, §3, §4, §5, §6, §7

[18] = tested on: lncap (prostate cancer cells); test: MTT cancer cell growth inhibition; format: cell-based; conditions: Homo sapiens, LNCaP, 72 h, MTT, 72 hours incubation, read-out: GI50 lnca
Excerpt: as §1, §2, §3, §4, §5, §6, §7

[19] = tested on: SGC-7901 (human gastric cancer cells); test: MTT cancer cell growth inhibition; format: cell-based; conditions: Homo sapiens, SGC-7901, 72 h, MTT, 72 hours incubation, SGC-7901 cells; read-out: GI50 SGC-7901
Excerpt: as §1, §2, §3, §4, §5, §6, §7

[20] = tested on: HT1080 (human fibrosarcoma cells); test: MTT cancer cell growth inhibition; format: cell-based; conditions: Homo sapiens, HT-1080, 72 h, MTT, 72 hours incubation, read-out: GI50 HT1
Excerpt: as §1, §2, §3, §4, §5, §6, §7

C/C=C1\NC(=O)c2ncc(F)c(n2)CNC(=O)C[C@@H](/C=C/CCSC(C)=O)OC(=O)[C@H](C)NC1=O [Compound 99]
IC50 HDAC7 (HDAC7): no activity
GI50 [1]: 31 nM
GI50 [2]: 60 nM
GI50 [3]: 60 nM
GI50 [4]: 10 nM
GI50 [5]: 20 nM
GI50 [6]: 24 nM
GI50 [7]: 31 nM
GI50 [8]: 58 nM
GI50 [9]: 70 nM
GI50 [10]: 40 nM
GI50 [11]: 60 nM
GI50 [12]: 16 nM
GI50 [13]: 60 nM
GI50 [14]: 22 nM
GI50 [15]: 88 nM
GI50 [16]: 42 nM
GI50 [17]: 19 nM
GI50 [18]: 20 nM
GI50 [19]: 69 nM
GI50 [20]: 70 nM

C/C=C1\NC(=O)c2ccc(SC)c(n2)CNC(=O)C[C@@H](/C=C/CCSC(=O)CCCCCCC)OC(=O)[C@H](C(C)C)NC1=O [Compound 149]
IC50 HDAC7 (HDAC7): no activity
GI50 [1]: 39 nM
GI50 ([2]; BGC-823 cells): 30 nM
GI50 ([3]; U937 cells): 20 nM
GI50 ([4]; MCF-7 cells): 60 nM
GI50 ([5]; MOLT-4 cells): 80 nM
GI50 [6]: 35 nM
GI50 [7]: 75 nM
GI50 [8]: 70 nM
GI50 ([9]; PANC-1 cells): 30 nM
GI50 ([10]; DU145 cells): 60 nM
GI50 ([11]; Hela cells): 50 nM
GI50 [12]: 63 nM
GI50 ([13]; A549 cells): 20 nM
GI50 [14]: 41 nM
GI50 [15]: 29 nM
GI50 [16]: 32 nM
GI50 [17]: 21 nM
GI50 ([18]; lncap cells): 50 nM
GI50 [19]: 42 nM
GI50 ([20]; HT1080 cells): 80 nM

C/C=C1\NC(=O)c2ccc(F)c(n2)CNC(=O)C[C@@H](/C=C/CCS)OC(=O)[C@H](Cc2ccc(O)cc2)NC1=O [Compound 130]
IC50 HDAC7 (HDAC7): no activity
GI50 [1]: 58 nM
GI50 [2]: 50 nM
GI50 [3]: 30 nM
GI50 [4]: 70 nM
GI50 [5]: 30 nM
GI50 [6]: 38 nM
GI50 [7]: 41 nM
GI50 [8]: 42 nM
GI50 [9]: 40 nM
GI50 [10]: 30 nM
GI50 [11]: 130 nM
GI50 [12]: 32 nM
GI50 [13]: 70 nM
GI50 [14]: 11 nM
GI50 [15]: 54 nM
GI50 [16]: 28 nM
GI50 [17]: 23 nM
GI50 [18]: 20 nM
GI50 [19]: 42 nM
GI50 [20]: 100 nM
